# Data: the supplement of paper PMC10307832
# Legend:
# Experiment in all cases: relative viability (nuclei count vs DMSO), 5 days (fraction); higher = more cells survive
# XMD8-85 + Dasatinib = compound: CN1CCN(CC1)C2=CC(=C(C=C2)NC3=NC=C4C(=N3)N(C5=CC=CC=C5C(=O)N4C)C)OC [XMD8-85] + Cc1nc(Nc2ncc(C(=O)Nc3c(C)cccc3Cl)s2)cc(N2CCN(CCO)CC2)n1 [Dasatinib] (partner 0.075 µM)
# Summary of the method: (§1)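 For relative viability, nuclei counts in treated wells were divided by those in vehicle wells. Lung cancer cell lines had been pin-tool dosed in 1536-well plates the day after seeding and cultured for 5 days, then fixed and stained in one step (final 0.05% Triton X-100, 1% formaldehyde, 1 ug/ml Hoechst) and imaged at 4×. Doses were one drug alone or a fixed anchor-drug dose plus five library-drug doses (not always all listed) in √10 steps, and values are duplicate-plate medians.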
# 4EGI-1 + Phenformin = compound: O=C(O)C(Cc1ccccc1[N+](=O)[O-])=NNc1nc(-c2ccc(Cl)c(Cl)c2)cs1 (mixture of isomers) [4EGI-1] + N=C(N)NC(=N)NCCc1ccccc1 [Phenformin] (partner 250 µM)
# Summary of the method: as §1
# 4EGI-1 + Foretinib = compound: O=C(O)C(Cc1ccccc1[N+](=O)[O-])=NNc1nc(-c2ccc(Cl)c(Cl)c2)cs1 (mixture of isomers) [4EGI-1] + COc1cc2c(Oc3ccc(NC(=O)C4(C(=O)Nc5ccc(F)cc5)CC4)cc3F)ccnc2cc1OCCCN1CCOCC1 [Foretinib] (partner 0.25 µM)
# Summary of the method: as §1
# XMD8-85 + Alpelisib = compound: CN1CCN(CC1)C2=CC(=C(C=C2)NC3=NC=C4C(=N3)N(C5=CC=CC=C5C(=O)N4C)C)OC [XMD8-85] + Cc1nc(NC(=O)N2CCC[C@H]2C(N)=O)sc1-c1ccnc(C(C)(C)C(F)(F)F)c1 [Alpelisib] (partner 2 µM)
# Summary of the method: as §1
Cell Line,relative viability (XMD8-85 + Dasatinib; first compound 0.08 µM),relative viability (XMD8-85 + Dasatinib; first compound 0.253 µM),relative viability (XMD8-85 + Dasatinib; first compound 0.8 µM),relative viability (XMD8-85 + Dasatinib; first compound 2.53 µM),relative viability (XMD8-85 + Dasatinib; first compound 8 µM),relative viability (4EGI-1 + Phenformin; first compound 0.5 µM),relative viability (4EGI-1 + Phenformin; first compound 5 µM),relative viability (4EGI-1 + Phenformin; first compound 15.81 µM),relative viability (4EGI-1 + Phenformin; first compound 50 µM),relative viability (4EGI-1 + Foretinib; first compound 0.5 µM),relative viability (4EGI-1 + Foretinib; first compound 5 µM),relative viability (4EGI-1 + Foretinib; first compound 15.81 µM),relative viability (4EGI-1 + Foretinib; first compound 50 µM),relative viability (XMD8-85 + Alpelisib; first compound 0.08 µM),relative viability (XMD8-85 + Alpelisib; first compound 0.253 µM),relative viability (XMD8-85 + Alpelisib; first compound 0.8 µM),relative viability (XMD8-85 + Alpelisib; first compound 2.53 µM),relative viability (XMD8-85 + Alpelisib; first compound 8 µM),relative viability (4EGI-1 + Phenformin; first compound 1.581 µM),relative viability (4EGI-1 + Foretinib; first compound 1.581 µM)
SW 900,0.615,0.608,0.641,0.549,0.417,0.812,0.807,0.527,0.322,0.935,0.908,0.677,0.546,–,–,–,–,–,–,–
NCI-H520,0.199,0.208,0.182,0.216,0.159,0.866,0.703,0.669,0.191,0.89,0.937,0.875,0.638,0.891,0.918,0.866,0.854,0.515,0.589,0.812
NCI-H358,0.167,0.173,0.169,0.207,0.18,0.311,0.343,0.215,0.111,0.739,0.84,0.515,0.11,0.957,0.856,1.11,0.854,0.584,0.297,0.657
NCI-H1650,0.34,0.313,0.365,0.271,0.192,0.456,0.401,0.284,0.206,1.37,1.04,0.749,0.405,–,–,–,–,–,–,–
RERF-LC-KJ,0.939,0.743,0.816,0.858,0.574,0.412,0.442,0.354,0.333,0.883,0.857,0.695,0.734,0.763,0.675,0.957,0.915,0.677,–,0.77
LOU-NH91,0.553,0.555,0.573,0.571,0.459,0.742,0.703,0.456,0.534,0.944,0.995,0.545,0.906,0.681,0.758,0.726,0.711,0.616,–,–
Calu-6,–,–,–,–,–,–,–,–,–,0.933,0.919,0.912,0.659,1.02,0.985,1.05,1.08,0.865,–,0.717
HCC-15,0.576,0.632,0.614,0.656,0.417,0.494,0.473,0.47,0.161,1.07,1.11,0.94,0.481,0.934,0.851,0.997,0.894,0.661,–,–
NCI-H23,0.719,0.853,0.885,0.751,0.528,0.884,0.763,0.826,0.706,1.04,1.1,0.933,0.638,0.608,0.824,0.741,0.64,0.391,–,–
HCC-78,0.567,0.48,0.42,0.352,0.242,0.812,0.741,0.668,0.658,0.636,0.547,0.416,0.525,0.384,0.405,0.39,0.3,0.285,–,–
NCI-H1299,–,–,–,–,–,–,–,–,–,1.08,1.11,1.09,1.06,1.15,0.948,1.08,1.07,0.874,–,1.11
LC-2-ad,0.415,0.319,0.482,0.345,0.237,0.601,0.649,0.342,0.265,0.997,1.02,0.485,0.283,0.893,0.832,0.888,0.735,–,–,–
HCC-44,–,–,–,–,–,0.184,0.192,0.118,0.137,–,–,–,–,0.835,0.79,0.852,0.64,0.307,–,–
A549,–,–,–,–,–,0.154,0.172,0.148,0.0933,1.01,0.996,0.883,0.697,0.744,0.883,0.806,0.807,0.759,–,0.771
HCC-366,0.552,0.828,0.642,0.74,0.601,0.676,0.741,0.631,0.443,0.972,0.905,0.985,0.308,0.532,0.573,0.42,0.373,0.273,0.569,0.701
NCI-H2342,0.296,0.316,0.32,0.32,0.331,0.582,0.716,0.641,0.522,1.15,1.2,1.05,0.831,–,–,–,–,–,0.588,1.06
NCI-H1563,0.493,0.431,0.448,0.465,0.412,0.624,0.602,0.69,0.55,0.915,0.962,0.789,0.557,1.04,0.967,0.882,0.814,0.709,0.613,0.853
IA-LM,–,–,–,–,–,–,–,–,–,1.25,0.966,0.663,0.0865,0.613,–,0.66,0.77,0.225,–,1.04
NCI-H1623,0.533,0.571,0.533,0.56,0.444,0.586,0.607,0.45,0.53,0.889,0.941,0.584,0.707,–,–,–,–,–,0.5,0.608
NCI-H522,0.858,0.867,0.818,0.944,0.909,0.641,0.676,0.626,0.551,–,–,–,–,–,–,–,–,–,0.548,–
ChaGo-K-1,0.449,–,0.613,0.57,0.577,0.447,0.543,0.49,0.351,0.942,0.816,0.975,0.799,–,–,–,–,–,0.439,0.935
